Target: T1, human GluR4B receptor (Homo sapiens, UniProt P48058)
T1 construct: expressed in transfected cells
Test: potentiation of agonist-induced excitability of human GluR4B receptor expressed in HEK 293 cells
Format: cell-based
Conditions: human GluR4B expressed in HEK 293 cells; qualitative statement
Description: The ability of compounds of formula I to potentiate glutamate receptor-mediated response may be determined using fluorescent calcium indicator dyes (Molecular Probes, Eugene, Oreg., Fluo-3) and by measuring glutamate-evoked efflux of calcium into GluR4 transfected HEK293 cells, as described in more detail below.
In one test, 96 well plates containing confluent monolayers of HEK cells stably expressing human GluR4B (obtained as described in European Patent Application Publication Number EP-A1-583917) are prepared. The tissue culture medium in the wells is then discarded, and the wells are each washed once with 200 μl of buffer (glucose, 10 mM, sodium chloride, 138 mM, magnesium chloride, 1 mM, potassium chloride, 5 mM, calcium chloride, 5 mM, N-[2-hydroxyethyl]-piperazine-N-[2-ethanesulfonic acid], 10 mM, to pH 7.1 to 7.3). […]
Each test is then performed as follows. […] A second fluorescent reading is taken after 5 minutes incubation. 15 μl of 400 μM glutamate solution is then added to each well (final glutamate concentration 100 μM), and a third reading is taken. The activities of test compounds and cyclothiazide solutions are determined by subtracting the second from the third reading (fluorescence due to addition of glutamate in the presence or absence of test compound or cyclothiazide) and are expressed relative to enhance fluorescence produced by 100 μM cyclothiazide.

T1 sequence (P48058 21-902): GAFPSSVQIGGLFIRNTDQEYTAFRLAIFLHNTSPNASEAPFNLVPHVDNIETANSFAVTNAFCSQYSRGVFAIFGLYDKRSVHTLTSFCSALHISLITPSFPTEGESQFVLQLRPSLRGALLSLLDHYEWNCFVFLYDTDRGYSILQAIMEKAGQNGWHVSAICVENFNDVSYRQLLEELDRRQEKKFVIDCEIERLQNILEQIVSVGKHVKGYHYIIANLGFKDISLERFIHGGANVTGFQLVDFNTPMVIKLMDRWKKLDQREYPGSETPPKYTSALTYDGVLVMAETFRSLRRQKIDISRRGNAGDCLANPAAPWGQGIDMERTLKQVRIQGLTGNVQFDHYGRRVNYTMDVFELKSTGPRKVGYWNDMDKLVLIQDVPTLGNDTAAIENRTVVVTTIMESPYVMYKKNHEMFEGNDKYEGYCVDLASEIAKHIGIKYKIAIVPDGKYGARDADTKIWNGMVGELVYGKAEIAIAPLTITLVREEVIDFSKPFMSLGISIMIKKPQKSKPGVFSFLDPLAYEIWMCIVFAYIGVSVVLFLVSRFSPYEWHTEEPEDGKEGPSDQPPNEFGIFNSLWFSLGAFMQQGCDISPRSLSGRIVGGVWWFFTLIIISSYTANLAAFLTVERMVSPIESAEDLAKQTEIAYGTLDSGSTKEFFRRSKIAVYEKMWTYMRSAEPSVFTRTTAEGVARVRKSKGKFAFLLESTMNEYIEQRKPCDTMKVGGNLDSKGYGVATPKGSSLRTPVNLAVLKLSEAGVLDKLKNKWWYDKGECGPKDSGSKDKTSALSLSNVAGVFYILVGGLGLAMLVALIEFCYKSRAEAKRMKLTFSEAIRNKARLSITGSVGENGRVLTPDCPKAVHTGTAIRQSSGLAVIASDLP

NS(=O)(=O)c1cc2c(cc1Cl)NC(C1CC3C=CC1C3)NS2(=O)=O (stereo not shown) [cyclothiazide]
potentiation of agonist-induced excitability of human GluR4B receptor: potentiate
